The results in this text go back to patent US10208071B2, “Use of agonists of formyl peptide receptor 2 for treating ocular inflammatory diseases” (Allergan, Inc., priority 2013, dated 2019).

Experiment [1] addresses T1, FPR2 (Homo sapiens (Human), UniProt P25090). Kind of experiment: FLIPR Ca+2 response, HEK-Gα16 cells stably expressing the human FPR2 receptor (Table 4). Format: cell-based. As to conditions: for FPR2 (efficacy): efficacy in parentheses. The essentials: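 HEK-Gα16 cells stably expressing human FPR2, loaded with 2 μM Fluo-4 in HBSS/20 mM HEPES for 40 min at 37° C., then washed. Ligands added in HBSS/Hepes and Ca+2 responses recorded on FLIPR in relative fluorescence units.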

The subject of a further experiment is corneal epithelial wound. The experiment is described as follows: Alkali burn corneal wound in rabbits. The experiment is classed as in vivo. As to conditions: FIG. 3; rabbit model, b270 says mouse models; topical three times a day. From the text:
Alkali burn in rabbits: Corneal epithelium plays an important role in the maintenance of corneal function and integrity. Prolonged corneal epithelial defects causes corneal opacity, neovascularization, bacterial infection and visual loss. Corneal epithelial healing is a complex process involving inflammatory response to injury, cell proliferation and migration. Animal models of corneal injury are every useful to test new anti-inflammatory and pro-wound healing therapies. New Zealand White rabbits weighing between 2.1 and 2.5 kg were anesthetized systemically with Ketamine/Xylazine (35/5 mg/kg) subcutaneously and topically with proparacaine (0.5%). The corneal epithelial wound in one eye was induced with a NaOH saturated filter paper containing 1.0 N NaOH for 30 seconds. The eyes were rinsed with sterile PBS. The corneal wound was confirmed by fluorescein staining with 10% sodium fluorescein (Science Lab Com) and slit lamp photography. Test compounds were formulated in the vehicle described above. For initial studies compounds were topically dosed three times a day. Quantification of corneal wound areas was done using Image J software where fluorescing stain green part was traced and converted to total pixel.

Experiment [2] deals with T1, FPR2. Kind of experiment: FPR2 Ga16-CHO EC50 (efficacy), Tables 1-3. The experiment is classed as cell-based. As to conditions: for FPR2 Ga16-CHO (efficacy): efficacy in parentheses.

T1 sequence (P25090 whole entry): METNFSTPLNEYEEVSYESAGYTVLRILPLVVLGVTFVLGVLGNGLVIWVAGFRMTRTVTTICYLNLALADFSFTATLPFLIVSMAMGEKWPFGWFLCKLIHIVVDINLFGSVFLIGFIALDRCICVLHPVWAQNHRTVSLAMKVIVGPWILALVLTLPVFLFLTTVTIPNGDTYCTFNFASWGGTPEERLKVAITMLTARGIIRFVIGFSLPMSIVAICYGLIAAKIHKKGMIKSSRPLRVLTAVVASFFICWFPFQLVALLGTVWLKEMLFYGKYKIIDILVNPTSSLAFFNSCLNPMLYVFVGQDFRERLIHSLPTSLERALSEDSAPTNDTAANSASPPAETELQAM

For orientation: EC50 means the concentration at which the effect is half-maximal. Take `CC[C@H](C)[C@H](NC(=O)Nc1ccc(Br)cc1)C(=O)NCC(=O)O` [Compound 3, {[(2S,3S)-2-{[(4-bromophenyl)carbamoyl]amino}-3-methylpentanoyl]amino}acetic acid]: the “FPR2 (efficacy)” value on FPR2 [1] is recorded as “(1.0)”. On FPR2 [1] (unit inferred), a half-maximal effect (EC50) was put at 1.98 nM. In addition, in the experiment on corneal epithelial wound, the “healing and re-epithelialization of corneal wound” value is “accelerated healing and re-epithelialization”.
Regarding `CC[C@H](C)[C@H](NC(=O)Nc1ccc(Br)cc1)C(=O)O` [Compound 53, (2S,3S)-2-{[(4-bromophenyl)carbamoyl]amino}-3-methylpentanoic acid], the “FPR2 (efficacy)” value at FPR2 [1] was “nM (0.9)”. For the same molecule, the “FPR2 Ga16-CHO (efficacy)” value at FPR2 [2] is “nM (0.89)”.
Turning to `CCC1(c2ccccc2)NC(=O)N(CC(=O)Nc2ccc(Br)cc2)C1=O` (centres unmarked) [N-(4-bromophenyl)-2-(4-ethyl-2,5-dioxo-4-phenylimidazolidin-1-yl)acetamide], at FPR2 [2], the EC50 stood at 523 nM and the “FPR2 Ga16-CHO (efficacy)” value is recorded as “nM (0.83)”.
On the same counts, the results for `CCC1(C)NC(=O)N(CC(=O)Nc2ccc(Br)cc2)C1=O` (centres unmarked) [N-(4-bromophenyl)-2-(4-ethyl-4-methyl-2,5-dioxoimidazolidin-1-yl)acetamide] are 485 nM and “nM (1.0)”.
The like results for `CCC1(CC)NC(=O)N(CC(=O)Nc2ccc(Cl)cc2)C1=O` [N-(4-chlorophenyl)-2-(4,4-diethyl-2,5-dioxoimidazolidin-1-yl)acetamide] were, in that order, 314 nM and “nM (0.79)”.
